Assay results reported in patent publication US4692443A, “3-bicyclicpyridinium-methyl cephalosporins” (Eli Lilly and Company, priority 1984, dated 1987).
Converted amounts (≈) assume the structure as drawn. Like-named read-outs stand apart in the source and are kept apart here.

How the values were obtained:
Staph. aureus X400 = experiment: standard in vitro agar dilution assay (MIC); assay type: cell-based; details: Staphylococcus aureus; Staph. aureus strain X400
Klebsiella KAE = experiment: standard in vitro agar dilution assay (MIC); assay type: cell-based; details: Klebsiella strain KAE; read-out: Agar Dilution MIC
H. influ. C.L. = experiment: standard in vitro agar dilution assay (MIC); assay type: cell-based; details: read-out: Agar Dilution MIC
Pseudomonas X239 = experiment: standard in vitro agar dilution assay (MIC); assay type: cell-based; details: Pseudomonas strain X239
Klebsiella X68 = experiment: standard in vitro agar dilution assay (MIC); assay type: cell-based
Serratia X99 = experiment: standard in vitro agar dilution assay (MIC); assay type: cell-based
Staph. epi EPI1 = experiment: standard in vitro agar dilution assay (MIC); assay type: cell-based; details: Staph. epi strain EPI1
Staph. epi 222 = experiment: standard in vitro agar dilution assay (MIC); assay type: cell-based; details: Staph. epi strain 222
Salmonella X514 = experiment: standard in vitro agar dilution assay (MIC); assay type: cell-based; details: Salmonella strain X514; read-out: Agar Dilution MIC
Staph. aureus X1.1 = experiment: standard in vitro agar dilution assay (MIC); assay type: cell-based; details: Staphylococcus aureus
Strep. D X66 = experiment: standard in vitro agar dilution assay (MIC); assay type: cell-based; details: Strep. D strain X66
E. coli TEM = experiment: standard in vitro agar dilution assay (MIC); assay type: cell-based; details: Escherichia coli, read-out: Agar Dilution MIC
[1] = system: Enterobacter aerogenes C32; experiment: standard in vitro agar dilution assay (MIC); assay type: cell-based; details: Klebsiella aerogenes
E. coli N10 = experiment: standard in vitro agar dilution assay (MIC); assay type: cell-based; details: Escherichia coli
Staph. aureus V41 = experiment: standard in vitro agar dilution assay (MIC); assay type: cell-based; details: Staphylococcus aureus
Staph. aureus S13E = experiment: microbe, parasite or virus in culture; assay type: cell-based; details: Staphylococcus aureus, read-out: Agar Dilution MIC
Strep. D 9960 = experiment: standard in vitro agar dilution assay (MIC); assay type: cell-based; details: Strep. D strain 9960
Pseudomonas X528 = experiment: standard in vitro agar dilution assay (MIC); assay type: cell-based; details: Pseudomonas strain X528
From the text: The antibacterial activity of several representative compounds of the invention has been evaluated in standard in vitro agar dilution assays. The following Table presents typical minimum inhibitory concentrations (MIC's) in μg /ml for exemplary compounds when evaluated against typical Gram + and Gram - microorganism.

Klebsiella X26 = experiment: standard in vitro agar dilution assay (MIC); assay type: cell-based
E. coli EC14 = experiment: standard in vitro agar dilution assay (MIC); assay type: cell-based; details: Escherichia coli, EC14, read-out: Agar Dilution MIC
Enterobacter cloacae EB5 = experiment: standard in vitro agar dilution assay (MIC); assay type: cell-based
Strep. PN PARK = experiment: standard in vitro agar dilution assay (MIC); assay type: cell-based; details: Strep. PN strain PARK
Strep. A C203 = experiment: standard in vitro agar dilution assay (MIC); assay type: cell-based; details: Strep. A strain C203
H. influ. 76 = experiment: standard in vitro agar dilution assay (MIC); assay type: cell-based; details: read-out: Agar Dilution MIC
Titration (pKa) = assay type: physicochemical; details: 66% dimethylformamide in water v/v
From the text: Titration (66% dimethylformamide in water v/v) pKa at 4.0, 7.4, 10.7.

[2] = Klebsiella, X68, read-out: Agar Dilution MIC
[3] = Serratia, X99, read-out: Agar Dilution MIC
[4] = Staph. aureus strain X1.1, read-out: Agar Dilution MIC
[5] = Enterobacter aerogenes strain C32, read-out: Agar Dilution MIC
[6] = N10, read-out: Agar Dilution MIC
[7] = Enterobacter cloacae, EB5, read-out: Agar Dilution MIC
[8] = C32, read-out: Agar Dilution MIC
[9] = E. coli strain N10, read-out: Agar Dilution MIC
[10] = Staph. aureus strain V41, read-out: Agar Dilution MIC
[11] = Klebsiella strain X26, read-out: Agar Dilution MIC
[12] = Serratia strain X99, read-out: Agar Dilution MIC

SMILES | MIC (Staph. aureus X400) [µg/mL] | MIC (Klebsiella KAE) [µg/mL] | MIC (Pseudomonas X239) [µg/mL] | MIC (Klebsiella X68; [2]) [µg/mL] | MIC (Serratia X99; [3]) [µg/mL] | MIC (Staph. epi EPI1) [µg/mL] | MIC (Staph. epi 222) [µg/mL] | MIC (Salmonella X514) [µg/mL] | MIC (Staph. aureus X1.1; [4]) [µg/mL] | MIC (Strep. D X66) [µg/mL] | MIC (E. coli N10; [6]) [µg/mL] | MIC (Staph. aureus S13E) [µg/mL] | MIC (Strep. D 9960) [µg/mL] | MIC (Pseudomonas X528) [µg/mL] | MIC (Enterobacter cloacae EB5; [7]) [µg/mL] | MIC (H. influ. C.L.) [µg/mL] | MIC (Staph. aureus V41; [10]) [µg/mL] | MIC (Strep. PN PARK) [µg/mL] | MIC (Strep. A C203) [µg/mL] | MIC (Klebsiella X26; [11]) [µg/mL] | further results
CC(C)(O/N=C(\C(=O)NC1C(=O)N2C(C(=O)[O-])=C(C[n+]3ccc4[nH]cnc4c3)CSC12)c1csc(N)n1)C(=O)O (stereo not drawn) [Example 1, syn-7-[2-(2-Aminothiazol-4-yl)-2-(2-carboxyprop-2-yl)oxyiminoacetamido]-3-(1H-imidazolo[4,5c]pyridinium-5-ylmethyl)-3-cephem-4-carboxylate] | 128 (≈ 218 µM) | 1 (≈ 1.7 µM) | 2 (≈ 3.41 µM) | 0.125 (≈ 0.213 µM) | 0.5 (≈ 0.852 µM) | 32 (≈ 54.6 µM) | 16 (≈ 27.3 µM) | 0.5 (≈ 0.852 µM) | 8 (≈ 13.6 µM) | > 128 | 0.5 (≈ 0.852 µM) | 32 (≈ 54.6 µM) | 16 (≈ 27.3 µM) | 8 (≈ 13.6 µM) | 0.25 (≈ 0.426 µM) |  |  |  |  |  | MIC (H. influ. C.L.; H. influ. strain C.L.): 0.03 µg/mL (≈ 0.0511 µM); MIC (E. coli TEM): 0.125 µg/mL (≈ 0.213 µM); MIC [1, 5]: 1 µg/mL (≈ 1.7 µM); MIC (Staph. aureus V41; V41, read-out: Agar Dilution MIC): 32 µg/mL (≈ 54.6 µM); MIC (Klebsiella X26; Klebsiella, X26, read-out: Agar Dilution MIC): 0.125 µg/mL (≈ 0.213 µM); MIC (E. coli EC14): 0.125 µg/mL (≈ 0.213 µM)
CO/N=C(\C(=O)NC1C(=O)N2C(C(=O)[O-])=C(C[n+]3ccc4[nH]c(-c5cccs5)nc4c3)CSC12)c1csc(N)n1 (stereo not drawn) [Example 8, syn-7-[2-(2-aminothiazol-4-yl)-2-methoxyiminoacetamido]-3-[2-(2-thienyl)-1H-imidazolo[4,5-c]pyridinium-5-ylmethyl)-3-cephem-4-carboxylate] | 32 (≈ 53.6 µM) | 4 (≈ 6.7 µM) |  | 0.5 (≈ 0.838 µM) | 0.5 (≈ 0.838 µM) | 4 (≈ 6.7 µM) | 2 (≈ 3.35 µM) | 0.5 (≈ 0.838 µM) | 2 (≈ 3.35 µM) | > 128 |  | 8 (≈ 13.4 µM) | 4 (≈ 6.7 µM) |  | 0.5 (≈ 0.838 µM) | 0.25 (≈ 0.419 µM) | 8 (≈ 13.4 µM) | < 0.008 | < 0.008 | 0.015 (≈ 0.0251 µM) | MIC [1, 8]: 0.5 µg/mL (≈ 0.838 µM); MIC (E. coli N10; [9]): 1 µg/mL (≈ 1.68 µM)
CO/N=C(\C(=O)NC1C(=O)N2C(C(=O)[O-])=C(C[n+]3ccc4[nH]c(-c5ccccc5)nc4c3)CSC12)c1csc(N)n1 (stereo not drawn) [Example 9, syn-7-[2-(2-aminothiazol-4-yl)-2-methoxyiminoacetamido]-3-(2-phenyl-1H-imidazolo[4,5-c]pyridinium-5-ylmethyl)-3-cephem-4-carboxylate] | 32 (≈ 54.2 µM) | 2 (≈ 3.39 µM) |  | 0.5 (≈ 0.847 µM) |  | 4 (≈ 6.77 µM) | 2 (≈ 3.39 µM) | 0.5 (≈ 0.847 µM) | 2 (≈ 3.39 µM) | > 128 |  | 8 (≈ 13.5 µM) | 4 (≈ 6.77 µM) |  | 0.5 (≈ 0.847 µM) |  | 8 (≈ 13.5 µM) | < 0.008 | < 0.008 | 0.015 (≈ 0.0254 µM) | MIC (H. influ. C.L.; H. influ. strain C.L.): 0.5 µg/mL (≈ 0.847 µM); MIC (Serratia X99; [12]): 1 µg/mL (≈ 1.69 µM); MIC [1, 8]: 0.5 µg/mL (≈ 0.847 µM); MIC (E. coli N10; [9]): 1 µg/mL (≈ 1.69 µM); MIC (E. coli EC14): 0.125 µg/mL (≈ 0.212 µM)
CO/N=C(\C(=O)NC1C(=O)N2C(C(=O)[O-])=C(C[n+]3cccc4oc(N)nc43)CSC12)c1csc(N)n1 (stereo not drawn) [Example 10, syn-7-[2-(2-aminothiazol-4-yl)-2-methoxyiminoacetamido]-3-(2-aminooxazolo[4,5-b]pyridinium-4-ylmethyl)-3-cephem-4-carboxylate] | 32 (≈ 60.3 µM) | 4 (≈ 7.54 µM) | 2 (≈ 3.77 µM) |  | 0.125 (≈ 0.236 µM) | 2 (≈ 3.77 µM) | 1 (≈ 1.88 µM) |  |  | > 128 | 0.125 (≈ 0.236 µM) | 4 (≈ 7.54 µM) | 16 (≈ 30.2 µM) | 4 (≈ 7.54 µM) | 0.25 (≈ 0.471 µM) |  | 4 (≈ 7.54 µM) | 0.015 (≈ 0.0283 µM) | 0.015 (≈ 0.0283 µM) | 0.03 (≈ 0.0565 µM) | MIC (H. influ. 76): 0.125 µg/mL (≈ 0.236 µM); MIC (E. coli TEM; E. coli strain TEM): 0.03 µg/mL (≈ 0.0565 µM); MIC [1, 5]: 0.125 µg/mL (≈ 0.236 µM)
CO/N=C(\C(=O)NC1C(=O)N2C(C(=O)[O-])=C(C[n+]3ccc4oc(C)nc4c3)CSC12)c1csc(N)n1 (stereo not drawn) [Example 11, syn-7-[2-(2-aminothiazol-4-yl)-2-methoxyiminoacetamido]-3-(2-methyloxazolo[4,5-c]pyridinium-5-ylmethyl)-3-cephem-4-carboxylate] | 32 (≈ 60.4 µM) | 4 (≈ 7.55 µM) | 2 (≈ 3.78 µM) |  | 0.125 (≈ 0.236 µM) | 4 (≈ 7.55 µM) | 1 (≈ 1.89 µM) | 0.03 (≈ 0.0567 µM) |  | > 128 |  | 8 (≈ 15.1 µM) | 8 (≈ 15.1 µM) | 4 (≈ 7.55 µM) | 0.125 (≈ 0.236 µM) | 0.125 (≈ 0.236 µM) | 8 (≈ 15.1 µM) | 0.015 (≈ 0.0283 µM) | 0.015 (≈ 0.0283 µM) | 0.015 (≈ 0.0283 µM) | MIC (Staph. aureus X1.1; X1.1, read-out: Agar Dilution MIC): 0.5 µg/mL (≈ 0.944 µM)
CO/N=C(\C(=O)N[C@@H]1C(=O)N2C(C(=O)[O-])=C(C[n+]3cccc4nc(N)sc43)CS[C@H]12)c1csc(N)n1 [Example 15, syn-7-[2-(2-aminothiazol-4-yl)-2-methoxyiminoacetamido]-3-(2-aminothiazolo[5,4-b]pyridinium-4-ylmethyl)-3-cephem-4-carboxylate] |  |  | 2 (≈ 3.66 µM) |  |  | 2 (≈ 3.66 µM) | 16 (≈ 29.3 µM) |  |  |  |  | 4 (≈ 7.32 µM) | 8 (≈ 14.6 µM) | 1 (≈ 1.83 µM) |  |  | 2 (≈ 3.66 µM) |  | 0.015 (≈ 0.0274 µM) |  | MIC (Klebsiella X68; Klebsiella strain X68, read-out: Agar Dilution MIC): 4 µg/mL (≈ 7.32 µM); pKa (second) (Titration (pKa)): 7.4; pKa (third) (Titration (pKa)): 10.7; pKa (Titration (pKa); read-out: pKa (first)): 4
CO/N=C(\C(=O)NC1C(=O)N2C(C(=O)[O-])=C(C[n+]3ccc4nc(C)sc4c3)CSC12)c1csc(N)n1 (stereo not drawn) [Example 16, syn-7-[2-(2-aminothiazol-4-yl)-2-methoxyiminoacetamido]-3-(2-methylthiazolo[5,4-c]pyridinium-5-ylmethyl)-3-cephem-4-carboxylate] | 8 (≈ 14.7 µM) | 1 (≈ 1.83 µM) | 4 (≈ 7.33 µM) |  | 0.125 (≈ 0.229 µM) | 2 (≈ 3.67 µM) | 1 (≈ 1.83 µM) | 0.03 (≈ 0.055 µM) | 1 (≈ 1.83 µM) | > 128 |  | 4 (≈ 7.33 µM) | 8 (≈ 14.7 µM) | 8 (≈ 14.7 µM) | 0.125 (≈ 0.229 µM) |  | 4 (≈ 7.33 µM) |  | 0.015 (≈ 0.0275 µM) |  | MIC (H. influ. 76; H. influ. strain 76): 0.015 µg/mL (≈ 0.0275 µM)
CO/N=C(\C(=O)NC1C(=O)N2C(C(=O)[O-])=C(C[n+]3ccc4nc(C(C)(C)C)sc4c3)CSC12)c1csc(N)n1 (stereo not drawn) [Example 17, syn-7-[2-(2-aminothiazol-4-yl)-2-methoxyiminoacetamido]-3-(2-tert.-butylthiazolo[5,4-c]pyridinium-5-ylmethyl)-3-cephem-4-carboxylate] | 32 (≈ 54.4 µM) | 4 (≈ 6.81 µM) |  | 0.5 (≈ 0.851 µM) |  | 4 (≈ 6.81 µM) | 1 (≈ 1.7 µM) | 0.5 (≈ 0.851 µM) | 1 (≈ 1.7 µM) | > 128 | 0.5 (≈ 0.851 µM) | 8 (≈ 13.6 µM) | 4 (≈ 6.81 µM) |  |  | 0.25 (≈ 0.425 µM) | 4 (≈ 6.81 µM) | 0.015 (≈ 0.0255 µM) | 0.015 (≈ 0.0255 µM) |  | MIC (H. influ. 76): 0.125 µg/mL (≈ 0.213 µM); MIC (Serratia X99; [12]): 1 µg/mL (≈ 1.7 µM); MIC [1, 8]: 0.5 µg/mL (≈ 0.851 µM); MIC (Enterobacter cloacae EB5; Enterobacter cloacae strain EB5, read-out: Agar Dilution MIC): 1 µg/mL (≈ 1.7 µM)
